Among the data in US8895733B2 (Novartis AG, priority 2010, dated 2014) are IC50 values, retold here.

Molecules are shown by their SMILES.

The target of one assay is T1, Nav 1.7 (Homo sapiens, UniProt Q15858).
T1 construct: expressed in transfected cells
T1 sequence (Q15858 whole entry): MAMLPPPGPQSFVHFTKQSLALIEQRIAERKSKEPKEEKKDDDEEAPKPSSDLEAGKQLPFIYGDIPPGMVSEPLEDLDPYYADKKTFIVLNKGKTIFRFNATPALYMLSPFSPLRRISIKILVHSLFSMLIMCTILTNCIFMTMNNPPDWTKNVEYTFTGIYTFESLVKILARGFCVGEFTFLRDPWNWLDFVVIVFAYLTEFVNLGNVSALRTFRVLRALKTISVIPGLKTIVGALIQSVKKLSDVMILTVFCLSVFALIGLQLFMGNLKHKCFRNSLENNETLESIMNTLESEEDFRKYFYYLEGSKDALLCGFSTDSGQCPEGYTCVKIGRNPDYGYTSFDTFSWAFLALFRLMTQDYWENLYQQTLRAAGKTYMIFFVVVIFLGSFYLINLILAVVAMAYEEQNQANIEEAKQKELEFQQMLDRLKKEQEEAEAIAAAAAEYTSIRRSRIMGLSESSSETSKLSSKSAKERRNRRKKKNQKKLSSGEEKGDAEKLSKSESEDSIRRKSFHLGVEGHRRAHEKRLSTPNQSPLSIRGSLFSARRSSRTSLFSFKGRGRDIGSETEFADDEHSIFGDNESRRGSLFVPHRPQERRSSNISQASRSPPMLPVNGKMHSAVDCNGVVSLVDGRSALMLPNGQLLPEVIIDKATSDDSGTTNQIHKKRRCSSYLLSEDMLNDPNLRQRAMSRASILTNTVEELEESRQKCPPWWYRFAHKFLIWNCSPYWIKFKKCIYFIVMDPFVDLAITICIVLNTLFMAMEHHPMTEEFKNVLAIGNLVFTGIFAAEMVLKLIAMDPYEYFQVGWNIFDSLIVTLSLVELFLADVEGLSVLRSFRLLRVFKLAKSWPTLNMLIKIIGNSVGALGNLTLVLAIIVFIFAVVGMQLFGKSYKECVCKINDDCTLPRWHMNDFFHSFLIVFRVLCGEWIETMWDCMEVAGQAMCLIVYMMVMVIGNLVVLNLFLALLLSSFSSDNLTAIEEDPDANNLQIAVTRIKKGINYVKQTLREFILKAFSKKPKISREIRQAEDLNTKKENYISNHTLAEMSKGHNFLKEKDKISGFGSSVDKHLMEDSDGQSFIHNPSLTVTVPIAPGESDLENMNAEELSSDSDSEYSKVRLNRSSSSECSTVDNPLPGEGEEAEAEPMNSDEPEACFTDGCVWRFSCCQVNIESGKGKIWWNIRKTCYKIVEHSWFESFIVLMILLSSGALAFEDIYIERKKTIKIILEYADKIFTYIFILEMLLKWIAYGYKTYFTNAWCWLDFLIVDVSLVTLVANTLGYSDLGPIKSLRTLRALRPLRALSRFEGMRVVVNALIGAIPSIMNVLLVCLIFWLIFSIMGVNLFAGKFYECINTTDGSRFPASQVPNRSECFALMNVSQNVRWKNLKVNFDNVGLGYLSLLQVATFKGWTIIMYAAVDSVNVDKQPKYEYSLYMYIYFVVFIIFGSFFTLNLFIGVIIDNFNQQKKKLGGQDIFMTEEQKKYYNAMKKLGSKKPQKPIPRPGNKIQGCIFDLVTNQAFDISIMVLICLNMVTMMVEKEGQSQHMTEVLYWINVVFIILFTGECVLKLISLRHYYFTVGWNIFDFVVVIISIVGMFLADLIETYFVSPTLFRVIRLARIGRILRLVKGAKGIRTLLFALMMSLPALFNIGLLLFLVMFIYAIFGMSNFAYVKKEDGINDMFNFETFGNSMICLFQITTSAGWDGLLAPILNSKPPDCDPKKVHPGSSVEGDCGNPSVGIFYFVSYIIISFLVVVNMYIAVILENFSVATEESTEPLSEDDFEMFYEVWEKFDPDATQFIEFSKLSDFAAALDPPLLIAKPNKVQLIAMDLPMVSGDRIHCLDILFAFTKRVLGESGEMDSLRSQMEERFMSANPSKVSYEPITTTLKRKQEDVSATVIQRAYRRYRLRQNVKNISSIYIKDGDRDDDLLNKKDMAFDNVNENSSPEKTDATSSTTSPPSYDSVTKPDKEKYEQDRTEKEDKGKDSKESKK
Description: Whole-cell voltage clamp electrophysiology, automated patch clamp (marker c in Table of Examples). The assay is classed as cell-based. The conditions noted are these: marker c = Automated patch clamp data; read-out: Nav 1.7 activity. Put shortly: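 Human NaV1.7 currents were recorded by whole-cell automated patch clamp, on IonWorks Quattro or another automated platform, typically in perforated-patch configuration. The stimulus protocol was designed to probe block mainly of the inactivated state, with a typical sweep stepping from about −65 mV holding to −10 mV, then −100 mV.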
Regarding `CN(c1ccccc1)c1nc(N)nc(-c2noc(C(=O)N3C[C@@H]4[C@@H](COCCC(F)(F)F)[C@@H]4C3)n2)n1` [Example 403, 2-N-methyl-2-N-phenyl-6-(5-{[-6-[(3,3,3-trifluoropropoxy)methyl]-3-azabicyclo[3.1.0]hexan-3-yl]carbonyl}-1,2,4-oxadiazol-3-yl)-1,3,5-triazine-2,4-diamine], the IC50 was 1290 nM.

For the compound `CN(c1ccccc1)c1nc(N)nc(-c2noc([C@@H]3CCCN3C(=O)CC(F)(F)F)n2)n1` [Example 451, 1-[(2S)-2-(3-{4-amino-6-[methyl(phenyl)amino]-1,3,5-triazin-2-yl}-1,2,4-oxadiazol-5-yl)pyrrolidin-1-yl]-3,3,3-trifluoropropan-1-one], the IC50 is 7950 nM.

Take `CC(C)NC(=O)c1nc(-c2nc(N)nc(Nc3cccc(F)c3)n2)no1` [Example 234, 3-{4-amino-6-[(3-fluorophenyl)amino]-1,3,5-triazin-2-yl}-N-(propan-2-yl)-1,2,4-oxadiazole-5-carboxamide]: the IC50 was 1270 nM.

`CN(c1ccccc1)c1nc(N)nc(-c2noc(N3CCC(O)(c4ccccc4)CC3)n2)n1` [Example 355, 1-(3-{4-amino-6-[methyl(phenyl)amino]-1,3,5-triazin-2-yl}-1,2,4-oxadiazol-5-yl)-4-phenylpiperidin-4-ol]: the IC50 came out at 2620 nM.

Take `CN(c1ccccc1)c1nc(N)nc(-c2noc(-c3ccc(CCC(F)(F)F)nc3)n2)n1` [Example 315, 2-N-methyl-2-N-phenyl-6-{5-[6-(3,3,3-trifluoropropyl)pyridin-3-yl]-1,2,4-oxadiazol-3-yl}-1,3,5-triazine-2,4-diamine]: the IC50 was determined as 170 nM.

`CN(c1ccccc1)c1nc(N)nc(-c2noc(-c3ccnn3CC(F)(F)F)n2)n1` [Example 257, 2-N-methyl-2-N-phenyl-6-{5-[1 - (2,2,2-trifluoroethyl)-1H-pyrazol-5-yl]-1,2,4-oxadiazol-3-yl}-1,3,5-triazine-2,4-diamine]: the IC50 was 3250 nM.

On to `CN(c1ccccc1)c1nc(N)nc(-c2noc([C@H]3CCCN3C(=O)OC(C)(C)C)n2)n1` [Example 353, tert-butyl (2R)-2-(3-{4-amino-6-[methyl(phenyl)amino]-1,3,5-triazin-2-yl}-1,2,4-oxadiazol-5-yl)pyrrolidine-1-carboxylate], for which the IC50 was 893 nM.

For the compound `CN(c1ccccc1)c1nc(N)nc(-c2noc(N3CC(OCC(F)(F)F)C3)n2)n1` [Example 494, 2-N-methyl-2-N-phenyl-6-{5-[3-(2,2,2-trifluoroethoxy)azetidin-1-yl]-1,2,4-oxadiazol-3-yl}-1,3,5-triazine-2,4-diamine], the IC50 turned out to be 1980 nM.

Take `CN(c1ccccc1)c1nc(N)nc(-c2noc(-c3ncccc3OCC(F)(F)F)n2)n1` [Example 486, 2-N-methyl-2-N-phenyl-6-{5-[3-(2,2,2-trifluoroethoxy)pyridin-2-yl]-1,2,4-oxadiazol-3-yl}-1,3,5-triazine-2,4-diamine]: the IC50 was 1220 nM.

On to `CC(C)S(=O)(=O)N1CC(c2nc(-c3nc(N)nc(N(C)c4ccccc4)n3)no2)C1` [Example 308, 2-N-methyl-2-N-phenyl-6-{5-[1-(propane-2-sulfonyl)azetidin-3-yl]-1,2,4-oxadiazol-3-yl}-1,3,5-triazine-2,4-diamine], for which the IC50 amounted to 8770 nM.

Turning to `Nc1nc(Nc2ccccc2)nc(-c2noc(C(=O)NC3CCC3)n2)n1` [Example 228, 3-[4-amino-6-(phenylamino)-1,3,5-triazin-2-yl]-N-cyclobutyl-1,2,4-oxadiazole-5-carboxamide], the IC50 worked out at 401 nM.

For `CN(c1ccccc1)c1nc(N)nc(-c2noc(-c3ccc(CN4CCOCC4)nc3)n2)n1` [Example 299, 2-N-methyl-6-{5-[6-(morpholin-4-ylmethyl)pyridin-3-yl]-1,2,4-oxadiazol-3-yl}-2-N-phenyl-1,3,5-triazine-2,4-diamine], the IC50 was 1110 nM.

Consider `CN(c1ccccc1)c1nc(N)nc(-c2noc(C3CCN(CCC(F)(F)F)C3)n2)n1` (stereo not drawn) [Example 204, 2-N-methyl-2-N-phenyl-6-{5-[1-(3,3,3-trifluoropropyl)pyrrolidin-3-yl]-1,2,4-oxadiazol-3-yl}-1,3,5-triazine-2,4-diamine], for which the IC50 was > 7830 nM.

As to `CN(c1ccccc1)c1nc(N)nc(-c2noc(C(=O)N3CCCCC3)n2)n1` [Example 277, 2-N-methyl-2-N-phenyl-6-{5-[(piperidin-1-yl)carbonyl]-1,2,4-oxadiazol-3-yl}-1,3,5-triazine-2,4-diamine], the IC50 came to 3260 nM.

Take `Cc1cnc(-c2nc(-c3nc(N)nc(N(C)c4ccccc4)n3)no2)s1` [Example 342]: the IC50 worked out at 2030 nM.

On to `CN(c1ccccc1)c1nc(N)nc(-c2noc(N3CCN(S(=O)(=O)CC(F)(F)F)CC3)n2)n1` [Example 389, 2-N-methyl-2-N-phenyl-6-(5-{4-[(2,2,2-trifluoroethane)sulfonyl]piperazin-1-yl}-1,2,4-oxadiazol-3-yl)-1,3,5-triazine-2,4-diamine], for which the IC50 stood at 5990 nM.

For `Nc1nc(Nc2cccc(F)c2)nc(-c2noc(C(=O)NC3CCC3)n2)n1` [Example 224, 3-{4-amino-6-[(3-fluorophenyl)amino]-1,3,5-triazin-2-yl}-N-cyclobutyl-1,2,4-oxadiazole-5-carboxamide], the IC50 amounted to 1520 nM.

Still in this assay, the particulars now being: marker c: Automated patch clamp data; read-out: Nav 1.7 activity.
On to `Cc1ccc(-c2nc(-c3nc(N)nc(N(C)c4ccccc4F)n3)no2)o1` [Example 91, N-(2-Fluoro-phenyl)-N-methyl-6-[5-(5-methyl-furan-2-yl)-[1,2,4]oxadiazol-3-yl]-[1,3,5]triazine-2,4-diamine], for which the IC50 was 547 nM.

Take `CN(c1ccccc1)c1nc(N)nc(-c2noc(-c3ccc(OC4CCOC4)nc3)n2)n1` (stereo not drawn) [Example 141, 2-N-methyl-6-{5-[6-(oxolan-3-yloxy)pyridin-3-yl]-1,2,4-oxadiazol-3-yl}-2-N-phenyl-1,3,5-triazine-2,4-diamine]: the IC50 was 261 nM.

In the case of `COCCNc1nc(Nc2ccccc2)nc(-c2noc(-c3ccc(OCC(F)(F)F)nc3)n2)n1` [Example 157, 2-N-(2-methoxyethyl)-4-N-phenyl-6-{5-[6-(2,2,2-trifluoroethoxy)pyridin-3-yl]-1,2,4-oxadiazol-3-yl}-1,3,5-triazine-2,4-diamine], the IC50 is 477 nM.

For the compound `Cc1cccnc1-c1nc(-c2nc(N)nc(N(C)c3ccccc3)n2)no1` [Example 152, 2-N-methyl-6-[5-(3-methylpyridin-2-yl)-1,2,4-oxadiazol-3-yl]-2-N-phenyl-1,3,5-triazine-2,4-diamine], the IC50 was 1620 nM.

Take `Nc1nc(Nc2cccc(F)c2F)nc(-c2noc(-c3ccc(OCC4CC4)nc3)n2)n1` [Example 139, 6-{5-[6-(cyclopropylmethoxy)pyridin-3-yl]-1,2,4-oxadiazol-3-yl}-2-N-(2,3-difluorophenyl)-1,3,5-triazine-2,4-diamine]: the IC50 was 144 nM.

As to `Cc1cc(-c2nc(-c3nc(N)nc(N(C)c4ccccc4)n3)no2)no1` [Example 44, N-Methyl-6-[5-(5-methyl-isoxazol-3-yl)-[1,2,4]oxadiazol-3-yl]-N-phenyl-[1,3,5]triazine-2,4-diamine], the IC50 turned out to be 2720 nM.

Consider `COc1ccccc1-c1nc(-c2nc(N)nc(N(C)c3ccccc3F)n2)no1` [Example 89, N-(2-Fluoro-phenyl)-6-[5-(2-methoxy-phenyl)-[1,2,4]oxadiazol-3-yl]-N-methyl-[1,3,5]triazine-2,4-diamine], for which the IC50 is 200 nM.
